We go through 13 compounds from BindingDB's records for doi:10.1021/jm00043a006 (Parke-Davis Pharmaceutical Research, 1994).

This test deals with T1, Dimer of Gag-Pol polyprotein [489-587] (Human immunodeficiency virus 1, UniProt P12497).
T1 construct: 489-587
As to the kind of experiment: Protease Inhibition Assay. The following applies: pH 4.7; 37 °C. As to the method:
For determination of IC50 values, HIV-1 protease was added to assay buffer containing inhibitor and the substrate (H-His-Lys-Ala-Arg-Val-Leu- (p-NO2) Phe-Glu-Ala-norleucine-Ser-NH2). The Leu- (p-NO2) Phe bond of the substrate was cleaved by the enzyme, and the substrate and products were separated by reversed-phase HPLC. Absorbance was measured at 220 nm, peak areas were determined, and percentage conversion to product was calculated.

For `Nc1cccc(OCCCc2c(O)c3ccccc3oc2=O)c1` [3-[3-(3-aminophenoxy)propyl]-4-hydroxy-2H-chromen-2-one], the IC50 came to 6.4 µM.

Compound `NC(=O)c1cccc(OCCCc2c(O)c3ccccc3oc2=O)c1` [3-[3-(4-Hydroxy-2-oxo-2H-1-benzopyran-3-yl)prpoxyl-benzamide] had an IC50 of 3.9 µM.

Regarding `O=C(O)c1cccc(OCCCc2c(O)c3ccccc3oc2=O)c1` [3-[3-(4-hydroxy-2-oxo-2H-chromen-3-yl)propoxy]benzoic acid], half-maximal inhibition (IC50) was put at 7 µM.

`O=c1oc2ccccc2c(O)c1CCCO` [4-Hydroxy-3-(3-hydroxypropyl)-2H-1-benzopyran-2-one] gave an IC50 of 86 µM.

Regarding `O=c1oc2ccccc2c(O)c1CC/C(=N/O)c1ccccc1` [4-Hydroxy-3-[3-(hydroroKyimino)-3-phenylpropyl] -2H-1-benzopyran-2-one], the half-maximal inhibitory concentration (IC50) came out at 71 µM.

Regarding `O=c1[nH]c2ccccc2c(O)c1CCCOc1ccccc1` [4-hydroxy-3-(3-phenoxypropyl)-1,2-dihydroquinolin-2-one], the IC50 was > 200 µM.

In the case of `O=c1oc2ccccc2c(O)c1CCCCOc1ccccc1` [4-hydroxy-3-(4-phenoxybutyl)-2H-chromen-2-one], the IC50 was > 100 µM.

The compound `COc1ccccc1OCCCc1c(O)c2ccccc2oc1=O` [4-hydroxy-3-[3-(2-methoxyphenoxy)propyl]-2H-chromen-2-one] came in with a half-inhibitory concentration (IC50) of 44 µM.

In the case of `COc1ccccc1CCCCc1c(O)c2ccccc2oc1=O` [4-hydroxy-3-[4-(2-methoxyphenyl)butyl]-2H-chromen-2-one], the IC50 was 1.7 µM.

Take `COc1ccc(CCCCc2c(O)c3ccccc3oc2=O)cc1` [4-hydroxy-3-[4-(4-methoxyphenyl)butyl]-2H-chromen-2-one]: the IC50 is > 100 µM.

As for `O=c1oc2ccccc2c(O)c1CCCOc1cccc(CO)c1` [4-hydroxy-3-{3-[3-(hydroxymethyl)phenoxy]propyl}-2H-chromen-2-one], it took 2.3 µM to reach half-maximal inhibition (IC50).

As to `COc1ccccc1CCCCc1c(O)c2ccc(OCc3ccccc3)cc2oc1=O` [7-(benzyloxy)-4-hydroxy-3-[4-(2-methoxyphenyl)butyl]-2H-chromen-2-one], the IC50 was > 100 µM.

`CCOC(=O)c1cccc(OCCCc2c(O)c3ccccc3oc2=O)c1` [ethyl 3-[3-(4-hydroxy-2-oxo-2H-chromen-3-yl)propoxy]benzoate]: the IC50 turned out to be 1.4 µM.
